Data from patent US20230071222A1, “METHOD FOR PREPARING FIBROSIS-ENCAPSULATED TUMOROID, AND USE THEREOF” (INDUSTRY-ACADEMIC COOPERATION FOUNDATION, YONSEI UNIVERSITY, priority 2020, published 2023).

System: fibrosis-encapsulated tumoroid (FET)
Experiment: Anticancer drug resistance test of fibrosis-encapsulated tumoroid (cell viability measurement)
Type: cell-based, human
Details: cisplatin, 100 µM; fibrosis-encapsulated tumoroid (FET) compared to the simple tumoroid (tumor only); FIG. 10B
Experimental: The present inventors performed a drug resistance test in order to evaluate whether it was possible to select drugs, which can be effective in the clinical stage, using the fibrosis-encapsulated tumoroid which is a solid cancer tissue analogue produced by the methods of Examples 1 to 4 (see FIGS. 10A and 10B). […] The drug test was conducted through cell viability measurement. The cell viability of each of the group containing the anticancer drug and the control group not containing the anticancer drug was measured after replacing the medium with maintenance medium. […] The cell viability of the solid cancer tissue analogue was measured using Promega’s CellTiter-Glo luminescent cell viability assay as another measurement method, and the death of cancer cells by the anticancer drug could be indirectly confirmed by comparison with the control group. […] The fibrosis-encapsulated tumoroid produced as described above mimicked a series of processes in which the anticancer agent passes sequentially through the blood vessel wall and fibrotic tissue and reaches cancer tissue, in the same way as in the human body. Thus, it is preferable to finally produce the eFET and conduct an anticancer drug test using the eFET, but only the FET may be selectively used in order to reduce cost or time. […]

N.N.[Cl][Pt][Cl] [cisplatin]
resistance to the anticancer drug (cell viability): statistically significant resistance
